How the values were obtained:
Type in all cases: ADME, organism-based
[1] = tested on: Brain; assay: Drug concentration in Sprague-Dawley rat brain assessed as (S)-6-(5-chloropyrimidin-2-yl)-3-(4-(3-(ethylsulfonyl)-2-hydroxypropoxy)-3-methoxyphenyl)pyrrolo[1,2-f][1,2,4]triazin-4(3H)-one level at 10 mg/kg, po qd at 8 hrs; conditions: in vivo, read-out: Drug uptake
[2] = tested on: Plasma; assay: Plasma concentration in Sprague-Dawley rat assessed as (S)-6-(5-chloropyrimidin-2-yl)-3-(4-(3-(ethylsulfonyl)-2-hydroxypropoxy)-3-methoxyphenyl)pyrrolo[1,2-f][1,2,4]triazin-4(3H)-one level at 10 mg/kg, po qd at 8 hrs; conditions: in vivo
[3] = tested on: Nucleic Acid; assay: Ratio of drug level in Sprague-Dawley rat brain to plasma assessed as (S)-6-(5-chloropyrimidin-2-yl)-3-(4-(3-(ethylsulfonyl)-2-hydroxypropoxy)-3-methoxyphenyl)pyrrolo[1,2-f][1,2,4]triazin-4(3H)-one level at 10 mg/kg, po qd
[4] = tested on: Nucleic Acid; assay: Ratio of drug level in Sprague-Dawley rat brain to plasma assessed as 6-(5-chloropyrimidin-2-yl)-3-(4-((3,3-difluoro-1-hydroxycyclobutyl)methoxy)-3-methoxyphenyl)pyrrolo[1,2-f][1,2,4]triazin-4(3H)-one level at 10 mg/kg, po qd
[5] = tested on: Plasma; assay: Plasma concentration in Sprague-Dawley rat assessed as 6-(5-chloropyrimidin-2-yl)-3-(4-((3,3-difluoro-1-hydroxycyclobutyl)methoxy)-3-methoxyphenyl)pyrrolo[1,2-f][1,2,4]triazin-4(3H)-one level at 10 mg/kg, po qd at 8 hrs; conditions: in vivo
[6] = tested on: Brain; assay: Drug concentration in Sprague-Dawley rat brain assessed as 6-(5-chloropyrimidin-2-yl)-3-(4-((3,3-difluoro-1-hydroxycyclobutyl)methoxy)-3-methoxyphenyl)pyrrolo[1,2-f][1,2,4]triazin-4(3H)-one level at 10 mg/kg, po qd at 8 hrs; conditions: in vivo, read-out: Drug uptake
[7] = tested on: Nucleic Acid; assay: Ratio of drug level in Sprague-Dawley rat brain to plasma assessed as ((R)-6-(5-chloropyridin-2-yl)-3-(4-(3-hydroxypyrrolidin-1-yl)-3-methoxyphenyl)pyrrolo[1,2-f][1,2,4]triazin-4(3H)-one level at 10 mg/kg, po qd
[8] = tested on: Brain; assay: Drug concentration in Sprague-Dawley rat brain assessed as ((R)-6-(5-chloropyridin-2-yl)-3-(4-(3-hydroxypyrrolidin-1-yl)-3-methoxyphenyl)pyrrolo[1,2-f][1,2,4]triazin-4(3H)-one level at 10 mg/kg, po qd at 8 hrs; conditions: in vivo, read-out: Drug uptake
[9] = tested on: Plasma; assay: Plasma concentration in Sprague-Dawley rat assessed as ((R)-6-(5-chloropyridin-2-yl)-3-(4-(3-hydroxypyrrolidin-1-yl)-3-methoxyphenyl)pyrrolo[1,2-f][1,2,4]triazin-4(3H)-one level at 10 mg/kg, po qd at 8 hrs; conditions: in vivo
[10] = tested on: Brain; assay: Drug concentration in Sprague-Dawley rat brain assessed as 6-(5-chloropyrimidin-2-yl)-3-(4-(2-hydroxy-2-methylpropoxy)-3-methoxyphenyl)pyrrolo[1,2-f][1,2,4]triazin-4(3H)-one level at 5 mg/kg, po qd at 8 hrs; conditions: in vivo, read-out: Drug uptake
[11] = tested on: Nucleic Acid; assay: Ratio of drug level in Sprague-Dawley rat brain to plasma assessed as 6-(5-chloropyrimidin-2-yl)-3-(4-(2-hydroxy-2-methylpropoxy)-3-methoxyphenyl)pyrrolo[1,2-f][1,2,4]triazin-4(3H)-one level at 5 mg/kg, po qd
[12] = tested on: Plasma; assay: Plasma concentration in Sprague-Dawley rat assessed as 6-(5-chloropyrimidin-2-yl)-3-(4-(2-hydroxy-2-methylpropoxy)-3-methoxyphenyl)pyrrolo[1,2-f][1,2,4]triazin-4(3H)-one level at 5 mg/kg, po qd at 8 hrs; conditions: in vivo

CCS(=O)(=O)C[C@H](COc1ccc(-n2cnn3cc(-c4ncc(Cl)cn4)cc3c2=O)cc1OC)OC(=O)CN
concentration [1]: 125 nM
concentration [2]: 3960 nM
BPR [3]: 0.03

COc1cc(-n2cnn3cc(-c4ncc(Cl)cn4)cc3c2=O)ccc1OCC1(OC(=O)CN)CC(F)(F)C1
BPR [4]: 0.7
concentration [5]: 1130 nM
concentration [6]: 805 nM

COc1cc(-n2cnn3cc(-c4ccc(Cl)cn4)cc3c2=O)ccc1N1CC[C@@H](OC(=O)[C@@H](N)C(C)C)C1
BPR [7]: 0.1
concentration [8]: 664 nM
concentration [9]: 4590 nM

COc1cc(-n2cnn3cc(-c4ncc(Cl)cn4)cc3c2=O)ccc1OCC(C)(C)OC(=O)CN
concentration [10]: 1430 nM
BPR [11]: 0.5
concentration [12]: 2710 nM
